1 compound from paper PMC4838840 (2016) can be followed below.

In experiment [1] the test system is dsAf16 (DNA) (DNA, duplex) CTTAATTGTATATATTCGCGAATATATACAATTAAG
The experiment can be described thus: fluorescence enhancement. The settings on record: 40 mM K+; 20 mM Tris HCl pH 7.0; F/F0 65-fold.

Experiment [2] has as its system ERSI (RNA, G4) GGGUAGGGGCAAAGGGGCUGGGG
The experiment can be described thus: fluorescence titration. The note with it: 40 mM K+; 20 mM Tris HCl pH 7.0, 25 °C, 2 μM ThT, 1:1 fit.

The test system of experiment [3] is ZIC1 (RNA, G4) GGGUGGGGGGGGCGGGGGAGGCCGGGG
The experiment can be described thus: fluorescence titration. The note with it: 40 mM K+; 20 mM Tris HCl pH 7.0, 25 °C, 2 μM ThT, 1:1 fit.

In experiment [4] the test system is HP18 (DNA) (DNA, hairpin) CAGTACAGATCTGTACTG
The experiment can be described thus: fluorescence enhancement. The settings on record: 40 mM K+; 20 mM Tris HCl pH 7.0; F/F0 36-fold.

Experiment [5] deals with ssAf20 (DNA) (DNA, single strand) CAATTGTATATATTCG
The experiment can be described thus: fluorescence enhancement. The settings on record: 40 mM K+; 20 mM Tris HCl pH 7.0; F/F0 59-fold.

Experiment [6] has as its system tRNA-Cys fragment (RNA, G4) GGGGGUAUAGCUCAGUGGUAGAGCAUUUGA
The experiment can be described thus: fluorescence enhancement. The note with it: 40 mM K+; 20 mM Tris HCl pH 7.0, 2 μM ThT, 4 μM RNA; F/F0 57-fold.

For experiment [7], the system named is tRNA-Ala fragment (RNA, G4) GGGGGUGUAGCUCAGUGGUAGAGCGCGUGC
The experiment can be described thus: fluorescence enhancement. The settings on record: 40 mM K+; 20 mM Tris HCl pH 7.0, 2 μM ThT, 4 μM RNA; F/F0 88-fold.

In experiment [8] the test system is HP18 (RNA) (RNA, hairpin) CAGUACAGAUCUGUACUG
The experiment can be described thus: fluorescence titration. The settings on record: 40 mM K+; 20 mM Tris HCl pH 7.0, 25 °C, 2 μM ThT, 1:1 fit.

Experiment [9] concerns Bulges-TB1 (RNA, G4) UUGUGGUGGGUGGGUGGGU
The experiment can be described thus: fluorescence enhancement. The note with it: 40 mM K+; 20 mM Tris HCl pH 7.0, 2 μM ThT, 4 μM RNA; F/F0 196-fold.

Experiment [10] concerns ssAf22 (RNA, single strand) UGAGCUUAAUUGUAUAUAUUCG
The experiment can be described thus: fluorescence titration. The settings on record: 40 mM K+; 20 mM Tris HCl pH 7.0, 25 °C, 2 μM ThT, 1:1 fit.

Experiment [11] relates to Spinach (RNA, aptamer) GCAGCCGGCUUGUUGAGUAGAGUGUGAGCUCCGUAACUGGUCGCGUC/GACGCGACCGAAUGAAAUGGUGAAGGACGGGUCCAGCCGGCUGC
The experiment can be described thus: fluorescence enhancement. The settings on record: 40 mM K+; 20 mM Tris HCl pH 7.0, 2 μM ThT, 4 μM RNA; F/F0 487-fold.

For experiment [12], the system named is dsAf16 (RNA) (RNA, duplex) CUUAAUUGUAUAUAUUCGCGAAUAUAUACAAUUAAG
The experiment can be described thus: fluorescence titration. The note with it: 40 mM K+; 20 mM Tris HCl pH 7.0, 25 °C, 2 μM ThT, 1:1 fit.

For experiment [13], the system named is BCL-2 (DNA) (DNA, G4) AGGGGGCCGTGGGGTGGGAGCTGGGG
The experiment can be described thus: fluorescence enhancement. The settings on record: 40 mM K+; 20 mM Tris HCl pH 7.0; F/F0 458-fold.

Experiment [14] deals with VEGF (RNA, G4) GGAGGAGGGGGAGGAGGA
The experiment can be described thus: fluorescence titration. The note with it: 40 mM K+; 20 mM Tris HCl pH 7.0, 25 °C, 2 μM ThT, 1:1 fit.

Experiment [15] concerns TRF2 (RNA, G4) CGGGAGGGCGGGGAGGGC
The experiment can be described thus: fluorescence titration. The settings on record: 40 mM K+; 20 mM Tris HCl pH 7.0, 25 °C, 2 μM ThT, 1:1 fit.

The subject of experiment [16] is C9orf72 (DNA) (DNA, G4) GGGGCCGGGGCCGGGGCCGGGGCC
The experiment can be described thus: fluorescence enhancement. The note with it: 40 mM K+; 20 mM Tris HCl pH 7.0; F/F0 252-fold.

Experiment [17] relates to ssAf20 (RNA) (RNA, single strand) CAAUUGUAUAUAUUCG
The experiment can be described thus: fluorescence titration. The settings on record: 40 mM K+; 20 mM Tris HCl pH 7.0, 25 °C, 2 μM ThT, 1:1 fit.

Experiment [18] concerns C9orf72 (RNA) (RNA, G4) GGGGCCGGGGCCGGGGCCGGGGCC
The experiment can be described thus: fluorescence titration. The settings on record: 40 mM K+; 20 mM Tris HCl pH 7.0, 25 °C, 2 μM ThT, 1:1 fit.

In experiment [19] the test system is Tel22 (DNA) (DNA, G4) AGGGTTAGGGTTAGGGTTAGGG
The experiment can be described thus: fluorescence enhancement. The note with it: 40 mM K+; 20 mM Tris HCl pH 7.0; F/F0 1339-fold.

Experiment [20] has as its system BCL-2 (RNA) (RNA, G4) AGGGGGCCGUGGGGUGGGAGCUGGGG
The experiment can be described thus: fluorescence titration. The note with it: 40 mM K+; 20 mM Tris HCl pH 7.0, 25 °C, 2 μM ThT, 1:1 fit.

Experiment [21] relates to Tel22 (RNA) (RNA, G4) AGGGUUAGGGUUAGGGUUAGGG
The experiment can be described thus: fluorescence enhancement. The settings on record: 40 mM K+; 20 mM Tris HCl pH 7.0, 2 μM ThT, 4 μM RNA; F/F0 440-fold.

In experiment [22] the test system is ADAM10 (RNA, G4) GGGGGACGGGUAGGGGCGGGAGGUAGGGG
The experiment can be described thus: fluorescence titration. The note with it: 40 mM K+; 20 mM Tris HCl pH 7.0, 25 °C, 2 μM ThT, 1:1 fit.

Molecules are shown by their SMILES.

Regarding `Cc1ccc2c(c1)sc(-c1ccc(N(C)C)cc1)[n+]2C`, the binding entry in experiment [1], in experiment [4], in [5], in experiment [6], in [7] and in [9] was “yes” each time. Besides, the binding entry in [11], in experiment [13], in [16], in experiment [19] and in experiment [21] was “yes” in each case. Moreover, the K entry in [2] is “(2.03 ± 0.12) × 10^5 M^-1”; in experiment [3] it was “(0.56 ± 0.22) × 10^5 M^-1”; in experiment [8], “(5.62 ± 1.94) × 10^4 M^-1”; in [10], “(5.53 ± 1.59) × 10^4 M^-1”; in experiment [12], “(1.43 ± 1.01) × 10^5 M^-1”; in experiment [14] it was “(1.24 ± 0.15) × 10^5 M^-1”. Moreover, the K result is “(0.62 ± 0.61) × 10^5 M^-1” in [15]; “(9.37 ± 1.28) × 10^4 M^-1” in experiment [17]; “(1.92 ± 0.05) × 10^5 M^-1” in experiment [18]; “(2.93 ± 0.27) × 10^5 M^-1” in experiment [20]; “(2.60 ± 0.12) × 10^5 M^-1” in [22].
